The results in this text go back to article PMC10764553, “Characterization of a thermophilic and glucose-tolerant GH1 β-glucosidase from hot springs and its prospective application in corn stover degradation” (Frontiers in Microbiology, 2023).

The test system of assay [1] is T1, LQBG8.
T1 construct: differs from Tepidiforma bonchosmolovskayae WP158066159.1 only at residue 48 (Ser in LQBG8, Gly there)
Briefly: p-nitrophenol release at […] nm. The settings on record: optimal temperature (70 °C); pH not stated for this assay. It is filed as biochemical.

Assay [2] relates to T1, LQBG8. The assay is described as follows: glucose release (glucose oxidase-peroxidase), Lineweaver-Burk. It counts as biochemical. The settings on record: 70 °C, pH 5.6; cellobiose 0-20 mg/mL (Km lies above the tested range).

For the compound `O=[N+]([O-])c1ccc(O[C@@H]2O[C@H](CO)[C@@H](O)[C@H](O)[C@H]2O)cc1` [p-nitrophenyl-β-D-glucopyranoside], in assay [1], the Michaelis-Menten constant (Km) (as a rule, the substrate concentration at which the rate is half of its maximum) turned out to be 260 ± 10 µM.

Take `OC[C@H]1O[C@@H](O[C@H]2[C@H](O)[C@@H](O)C(O)O[C@@H]2CO)[C@H](O)[C@@H](O)[C@@H]1O` (some centres unmarked) [cellobiose]: the Km in assay [2] was found to be 28 ± 1.9 mg/mL.
